Assays:
PI3Kα = PI3Kα (Homo sapiens, UniProt P42336); experiment: PI3K kinase activity inhibition assay; assay type: biochemical; details: Kinase-Glo Plus ATP detection, read-out: IC50 against PI3K
In short: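 PI3Kα (50 nM solution) was reacted with 30 μM ATP and 45 μM PIP2 solutions, each in HEPES pH 7.4 with MgCl2 and DTT, for 2 h at room temperature. Remaining ATP was measured by Kinase-Glo Plus luminescence, and inhibition was derived from ATP consumed. IC50 was taken from curve fitting of the serial dilutions.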

[1] = test system: Akt (threonine 308) phosphorylation in AN3CA tumor; experiment: Akt phosphorylation inhibition assay in xenograft; assay type: in vivo, female nude mouse; details: Mus musculus, AN3-CA, oral, 6 hr after dosing
Experimental: (§1) A tumor section was prepared from a human endometrial cancer cell strain AN3CA tumor mass formed in a female nude mouse as subcutaneously transplanted tumor and a xenograft model was prepared by subcutaneously transplanting the tumor to a female nude mouse. The test compound at a predetermined concentration was orally administered. After a predetermined time, the anesthetized mouse was exsanguinated to death, and a tumor mass was isolated. The tumor mass was crushed using a lysis buffer containing inhibitors of proteases and dephosphorylating enzymes (Cell Signaling Technology, Inc.) and the supernatant was separated by centrifugation to obtain a tumor extract. The protein content of the tumor extract was measured using DC Protein Assay Kit (Bio-Rad Laboratories, Inc.) and phosphorylation conditions of Akt (threonine 308) and S6 (serine 235 and 236) were analyzed by a usual technique of western blotting using tumor extracts containing the same amount of protein. The primary antibody and the secondary antibody used for detecting each molecule were rabbit anti-phospho-Akt(T308) antibody and HRP-labeled goat anti-rabbit IgG antibody or mouse anti-phospho-S6(S235/236) antibody and HRP-labeled sheep anti-mouse IgG antibody.
(§2) The signal intensity detected using an image analyzer Typhoon 9400 (GE Healthcare) was quantified, and the phosphorylation inhibition rate (%) was calculated by the following formula. Phosphorylation inhibitory activity (%) of Akt and S6 after treatment with test compound=100−100×(B/A) A: Signal intensity derived from phosphorylated protein in tumor mass isolated from mouse untreated with test compound B: Signal intensity derived from phosphorylated protein in tumor mass isolated from mouse treated with test compound

[2] = test system: human endometrial cancer cell strain AN3CA; experiment: Cell growth inhibition test (MTT), AN3CA; assay type: cell-based; details: AN3-CA, 72 h, 3 days culture, read-out: concentration exhibiting anti-cell effect (GI50)
In short: (§3)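 Each cell strain is exposed to serially diluted compound for 3 days (37° C, 5% CO2), added one day after seeding at 5000 (AN3CA, HT29) or 1000 (IGROV1) cells/well. Living cells are quantified by MTT reduction over 4 h, absorbance at 540 nm, giving GI50 at 50% growth rate.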

[3] = test system: human ovary cancer cell strain IGROV1; experiment: Cell growth inhibition test (MTT), IGROV1; assay type: cell-based; details: IGROV-1, 72 h, IGROV1, 3 days culture, read-out: concentration exhibiting anti-cell effect (GI50)
In short: as §3

[4] = test system: S6 (serine 235 and 236) phosphorylation in AN3CA tumor; experiment: S6 phosphorylation inhibition assay in xenograft; assay type: in vivo, female nude mouse; details: Mus musculus, AN3-CA, oral, 6 hr after dosing
Experimental: as §1, §2

[5] = test system: human colon cancer cell strain HT29; experiment: Cell growth inhibition test (MTT), HT29; assay type: cell-based; details: HT-29, 72 h, HT29, 3 days culture, read-out: concentration exhibiting anti-cell effect (GI50)
In short: as §3

Chain of PI3Kα (P42336 whole entry, species assumed): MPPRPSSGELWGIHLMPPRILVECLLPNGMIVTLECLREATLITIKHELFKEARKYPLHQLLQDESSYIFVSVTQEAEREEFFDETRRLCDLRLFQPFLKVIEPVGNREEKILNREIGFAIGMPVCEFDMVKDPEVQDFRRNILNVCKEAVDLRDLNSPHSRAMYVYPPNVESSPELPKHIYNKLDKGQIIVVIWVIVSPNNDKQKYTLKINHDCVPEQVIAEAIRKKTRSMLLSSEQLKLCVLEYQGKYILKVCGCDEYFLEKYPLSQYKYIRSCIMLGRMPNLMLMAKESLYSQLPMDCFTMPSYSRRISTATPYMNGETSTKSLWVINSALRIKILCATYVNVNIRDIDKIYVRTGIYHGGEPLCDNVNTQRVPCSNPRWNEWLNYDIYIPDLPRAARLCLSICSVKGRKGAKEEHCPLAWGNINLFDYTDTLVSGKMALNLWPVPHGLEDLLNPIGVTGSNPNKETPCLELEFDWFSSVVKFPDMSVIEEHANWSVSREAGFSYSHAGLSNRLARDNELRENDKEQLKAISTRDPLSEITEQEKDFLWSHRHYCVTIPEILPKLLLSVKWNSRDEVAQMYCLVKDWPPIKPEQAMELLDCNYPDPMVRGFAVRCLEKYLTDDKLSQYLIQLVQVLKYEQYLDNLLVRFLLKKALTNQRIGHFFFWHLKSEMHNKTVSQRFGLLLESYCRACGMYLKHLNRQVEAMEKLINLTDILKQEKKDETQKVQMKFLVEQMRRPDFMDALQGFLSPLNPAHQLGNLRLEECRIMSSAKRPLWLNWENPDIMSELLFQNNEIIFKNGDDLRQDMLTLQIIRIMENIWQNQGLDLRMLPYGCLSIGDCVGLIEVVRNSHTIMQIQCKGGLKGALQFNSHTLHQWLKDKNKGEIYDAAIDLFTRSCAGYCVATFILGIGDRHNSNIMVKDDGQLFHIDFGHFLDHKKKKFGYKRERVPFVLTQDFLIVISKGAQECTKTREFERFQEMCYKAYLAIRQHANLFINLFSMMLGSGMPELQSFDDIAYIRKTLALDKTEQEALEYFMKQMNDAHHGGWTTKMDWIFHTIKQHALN
Chain of PI3Kα (P27986 whole entry partner, species assumed): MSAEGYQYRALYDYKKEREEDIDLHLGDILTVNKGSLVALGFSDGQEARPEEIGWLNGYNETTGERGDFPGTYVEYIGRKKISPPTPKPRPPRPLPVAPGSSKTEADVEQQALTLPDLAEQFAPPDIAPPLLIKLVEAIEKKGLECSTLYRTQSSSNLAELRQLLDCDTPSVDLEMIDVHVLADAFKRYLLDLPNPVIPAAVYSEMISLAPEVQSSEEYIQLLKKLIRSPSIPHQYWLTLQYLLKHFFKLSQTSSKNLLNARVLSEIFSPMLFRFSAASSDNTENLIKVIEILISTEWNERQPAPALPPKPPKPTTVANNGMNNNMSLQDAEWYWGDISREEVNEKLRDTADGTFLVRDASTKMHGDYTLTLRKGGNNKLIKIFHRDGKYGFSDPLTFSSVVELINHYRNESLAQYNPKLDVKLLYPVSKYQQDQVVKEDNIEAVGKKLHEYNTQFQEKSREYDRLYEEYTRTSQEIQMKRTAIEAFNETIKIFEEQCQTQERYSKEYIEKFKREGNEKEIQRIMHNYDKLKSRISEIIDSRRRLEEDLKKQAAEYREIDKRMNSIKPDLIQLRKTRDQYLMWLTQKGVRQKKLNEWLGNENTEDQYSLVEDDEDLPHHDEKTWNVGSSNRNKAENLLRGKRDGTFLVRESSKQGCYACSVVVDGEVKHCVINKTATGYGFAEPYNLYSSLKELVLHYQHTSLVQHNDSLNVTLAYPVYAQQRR

SMILES: CC(C)Cn1c(N2CCN(C(=O)C[C@H](C)O)CC2)nc2c(N3CCOC[C@@H]3C)nc(-c3cnc(N)nc3)nc21 [Example 133, (2S)-4-(4-[2-(2-Aminopyrimidin-5-yl)-9-isobutyl-6-[(3S)-3-methylmorpholin-4-yl]-9H-purin-8-yl]piperazin-1-yl)-4-oxobutan-2-ol]
- IC50 (PI3Kα): < 0.01 µM
- inhibition at 10 mg/kg [1]: > 60%
- GI50 [2]: ≤ 5 µM
- GI50 [3]: ≤ 5 µM
- inhibition at 10 mg/kg [4]: > 90%
- GI50 [5]: ≤ 5 µM
